The text below walks through data of patent US12522601B2, “1,3,4-oxadiazole derivative compounds as histone deacetylase 6 inhibitor, and the pharmaceutical composition comprising the same” (CHONG KUN DANG PHARMACEUTICAL CORP., priority 2020, dated 2026).

The target of experiment [1] is T1, human recombinant HDAC1 (Homo sapiens, UniProt Q13547).
T1 construct: purchased Enzo Life Sciences, Inc. BML-SE456
The experiment can be described thus: In vitro HDAC enzyme activity inhibition assay, HDAC1 (HDAC Fluorimetric Drug Discovery Kit). It counts as biochemical. To be noted: human recombinant HDAC1, Fluor de Lys-SIRT1 substrate 10 μM, 30° C. for 60 minutes. The procedure, abridged:
(§1)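 Fluorimetric deacetylase kit; 0.3 μg human recombinant enzyme with 10 μM Fluor de Lys-SIRT1 substrate, 60 min at 30° C, then developer 30 min. Fluorescence read at Ex 360/Em 460; IC50 from 5-fold compound dilutions. HDAC1 and HDAC6 run by the same protocol.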

The target of experiment [2] is T2, human recombinant HDAC6 (Homo sapiens, UniProt Q9UBN7).
T2 construct: purchased Calbiochem Inc. 382180
T2 sequence (Q9UBN7 1-1215): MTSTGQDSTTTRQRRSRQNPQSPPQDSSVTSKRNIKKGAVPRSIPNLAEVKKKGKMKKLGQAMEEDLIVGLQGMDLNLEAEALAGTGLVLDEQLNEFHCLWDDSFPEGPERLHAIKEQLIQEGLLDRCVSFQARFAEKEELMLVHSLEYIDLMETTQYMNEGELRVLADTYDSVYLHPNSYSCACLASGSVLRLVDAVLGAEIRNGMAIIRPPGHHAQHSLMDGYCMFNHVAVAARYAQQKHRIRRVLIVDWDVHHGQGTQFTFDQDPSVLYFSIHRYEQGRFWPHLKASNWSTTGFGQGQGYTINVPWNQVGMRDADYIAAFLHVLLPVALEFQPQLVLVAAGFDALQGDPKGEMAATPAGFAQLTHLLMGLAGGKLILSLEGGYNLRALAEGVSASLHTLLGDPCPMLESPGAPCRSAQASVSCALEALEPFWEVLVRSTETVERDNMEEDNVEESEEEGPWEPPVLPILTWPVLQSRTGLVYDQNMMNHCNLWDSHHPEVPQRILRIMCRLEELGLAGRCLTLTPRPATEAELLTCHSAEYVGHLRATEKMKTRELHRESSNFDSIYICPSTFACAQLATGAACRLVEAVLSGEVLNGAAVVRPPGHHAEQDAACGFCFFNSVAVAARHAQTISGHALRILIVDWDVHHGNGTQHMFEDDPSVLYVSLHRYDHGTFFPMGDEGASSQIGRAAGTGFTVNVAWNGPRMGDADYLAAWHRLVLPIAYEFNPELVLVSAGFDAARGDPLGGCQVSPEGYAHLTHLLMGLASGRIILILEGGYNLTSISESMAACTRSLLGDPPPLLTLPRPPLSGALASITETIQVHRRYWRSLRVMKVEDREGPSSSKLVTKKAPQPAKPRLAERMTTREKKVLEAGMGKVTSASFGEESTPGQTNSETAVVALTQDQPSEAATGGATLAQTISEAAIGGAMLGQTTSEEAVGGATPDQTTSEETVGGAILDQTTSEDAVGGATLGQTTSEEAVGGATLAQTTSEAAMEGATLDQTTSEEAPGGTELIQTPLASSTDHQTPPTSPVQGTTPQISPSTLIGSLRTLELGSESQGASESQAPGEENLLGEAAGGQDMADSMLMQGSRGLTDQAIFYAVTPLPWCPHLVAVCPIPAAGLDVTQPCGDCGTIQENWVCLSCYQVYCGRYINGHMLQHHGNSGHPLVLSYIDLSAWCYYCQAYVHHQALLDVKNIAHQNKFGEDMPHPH
The experiment can be described thus: In vitro HDAC enzyme activity inhibition assay, HDAC6 (HDAC Fluorimetric Drug Discovery Kit). The format is biochemical. Particulars: for HDAC6 Selectivity (fold): HDAC6 versus HDAC1; for IC50: human recombinant HDAC6, same protocol as the HDAC1 test. Summed up: as §1

T1 sequence (Q13547 whole entry): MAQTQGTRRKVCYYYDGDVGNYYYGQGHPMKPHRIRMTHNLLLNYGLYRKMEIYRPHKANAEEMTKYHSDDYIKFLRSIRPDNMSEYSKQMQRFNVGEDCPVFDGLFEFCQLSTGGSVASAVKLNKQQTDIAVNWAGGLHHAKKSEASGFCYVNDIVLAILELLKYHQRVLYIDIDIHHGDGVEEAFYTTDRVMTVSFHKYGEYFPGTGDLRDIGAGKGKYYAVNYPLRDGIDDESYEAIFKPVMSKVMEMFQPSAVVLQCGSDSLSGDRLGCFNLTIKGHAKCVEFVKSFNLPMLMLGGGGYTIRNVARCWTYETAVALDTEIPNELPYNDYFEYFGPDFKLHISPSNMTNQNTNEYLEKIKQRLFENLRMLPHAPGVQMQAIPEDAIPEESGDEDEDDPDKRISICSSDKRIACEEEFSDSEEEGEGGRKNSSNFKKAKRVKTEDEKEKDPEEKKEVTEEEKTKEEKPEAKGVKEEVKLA

As to `CS(=O)(=O)N1CCC(C(=O)N(Cc2cn3ccc(-c4nnc(C(F)F)o4)cc3n2)c2ccccc2)CC1` [Compound 4128, N-((7-(5-(difluoromethyl)-1,3,4-oxadiazol-2-yl)imidazo[1,2-a]pyridin-2-yl)methyl)-1-(methylsulfonyl)-N-phenylpiperidine-4-carboxamide], the IC50 in experiment [1] was > 50 µM. In experiment [2], the “HDAC6 Selectivity (fold)” value is on record as 159 fold and the IC50 was found to be 0.315 µM.
Regarding `CCC(=O)N1CCC(C(=O)N(Cc2cn3ccc(-c4nnc(C(F)F)o4)cc3n2)c2cccc(F)c2)CC1` [Compound 4147, N-((7-(5-(difluoromethyl)-1,3,4-oxadiazol-2-yl)imidazo[1,2-a]pyridin-2-yl)methyl)-N-(3-fluorophenyl)-1-propionylpiperidine-4-carboxamide], the IC50 in experiment [1] is > 50 µM. In experiment [2], the “HDAC6 Selectivity (fold)” value was determined as 126 fold and the IC50 is 0.396 µM.
In the case of `CC(C)N1CC(C(=O)N(Cc2cn3ccc(-c4nnc(C(F)F)o4)cc3n2)c2cccc(F)c2)C1` [Compound 4190, N-((7-(5-(difluoromethyl)-1,3,4-oxadiazol-2-yl)imidazo[1,2-a]pyridin-2-yl)methyl)-N-(3-fluorophenyl)-1-isopropylazetidine-3-carboxamide], in experiment [1], the IC50 was > 50 µM. For the same compound, in experiment [2], the “HDAC6 Selectivity (fold)” value amounted to 395 fold and the IC50 was 0.127 µM.
The matching figures for `O=C(N1CCN(c2ncccn2)CC1)N(Cc1cn2ccc(-c3nnc(C(F)F)o3)cc2n1)c1ccccc1` [Compound 4049, N-((7-(5-(difluoromethyl)-1,3,4-oxadiazol-2-yl)imidazo[1,2-a]pyridin-2-yl)methyl)-N-phenyl-4-(pyrimidin-2-yl)piperazine-1-carboxamide]: > 50 µM, 539 fold and 0.0928 µM.
In the case of `Fc1ccc(NCc2cn3ccc(-c4nnc(C(F)F)o4)cc3n2)cc1F` [Compound 3671, N-((7-(5-(difluoromethyl)-1,3,4-oxadiazol-2-yl)imidazo[1,2-a]pyridin-2-yl)methyl)-3,4-difluoroaniline], the IC50 in experiment [1] is > 50 µM. In experiment [2], the “HDAC6 Selectivity (fold)” value is 318 fold and the IC50 was found to be 0.157 µM.
The matching figures for `O=C(C1CN(C2CCCCC2)C1)N(Cc1cn2ccc(-c3nnc(C(F)F)o3)cc2n1)c1cccc(F)c1` [Compound 4194, 1-cyclohexyl-N-((7-(5-(difluoromethyl)-1,3,4-oxadiazol-2-yl)imidazo[1,2-a]pyridin-2-yl)methyl)-N-(3-fluorophenyl) azetidine-3-carboxamide]: > 50 µM, 379 fold and 0.132 µM.
For `O=C(N1CCN(C2CCC2)CC1)N(Cc1cn2ccc(-c3nnc(C(F)F)o3)cc2n1)c1cccc(F)c1` [Compound 4087, 4-cyclobutyl-N-((7-(5-(difluoromethyl)-1,3,4-oxadiazol-2-yl)imidazo[1,2-a]pyridin-2-yl)methyl)-N-(3-fluorophenyl)piperazine-1-carboxamide], in that order: > 50 µM, 214 fold and 0.233 µM.
The matching figures for `CS(=O)(=O)c1ccc(Cc2cn3ccc(-c4nnc(C(F)F)o4)cc3n2)cc1` [Compound 3595, 2-(difluoromethyl)-5-(2-(4-(methylsulfonyl)benzyl)imidazo[1,2-a]pyridin-7-yl)-1,3,4-oxadiazole]: > 50 µM, 112 fold and 0.445 µM.
Turning to `O=C(N1CCN(C(=O)C(F)(F)F)CC1)N(Cc1cn2ccc(-c3nnc(C(F)F)o3)cc2n1)c1cccc(F)c1` [Compound 4096, N-((7-(5-(difluoromethyl)-1,3,4-oxadiazol-2-yl)imidazo[1,2-a]pyridin-2-yl)methyl)-N-(3-fluorophenyl)-4-(2,2,2-trifluoroacetyl)piperazine-1-carboxamide], the IC50 was > 50 µM in experiment [1] and 0.413 µM in experiment [2]. Further, in experiment [2], the “HDAC6 Selectivity (fold)” value is on record as 121 fold.
As for `CN(C)C(=O)N1CC(C(=O)N(Cc2cn3ccc(-c4nnc(C(F)F)o4)cc3n2)c2cccc(F)c2)C1` [Compound 4205, N3-((7-(5-(difluoromethyl)-1,3,4-oxadiazol-2-yl)imidazo[1,2-a]pyridin-2-yl)methyl)-N3-(3-fluorophenyl)-N1,N1-dimethylazetidine-1,3-dicarboxamide], the IC50 in experiment [1] is > 50 µM. In experiment [2], the “HDAC6 Selectivity (fold)” value turned out to be 348 fold and the IC50 was 0.144 µM.
For `O=C(N1CCN(C2CCCCC2)CC1)N(Cc1cn2ccc(-c3nnc(C(F)F)o3)cc2n1)c1cccc(F)c1` [Compound 4089, 4-cyclohexyl-N-((7-(5-(difluoromethyl)-1,3,4-oxadiazol-2-yl)imidazo[1,2-a]pyridin-2-yl)methyl)-N-(3-fluorophenyl)piperazine-1-carboxamide], in that order: > 50 µM, 113 fold and 0.443 µM.
The matching figures for `CC(C)c1cccc(Cc2cn3ccc(-c4nnc(C(F)F)o4)cc3n2)c1` [Compound 3594, 2-(difluoromethyl)-5-(2-(3-isopropylbenzyl)imidazo[1,2-a]pyridin-7-yl)-1,3,4-oxadiazole]: > 50 µM, 89 fold and 0.564 µM.
For `O=C(C1CCC1)N1CCN(C(=O)N(Cc2cn3ccc(-c4nnc(C(F)F)o4)cc3n2)c2ccccc2)CC1` [Compound 4043, 4-(cyclobutanecarbonyl)-N-((7-(5-(difluoromethyl)-1,3,4-oxadiazol-2-yl)imidazo[1,2-a]pyridine-2-yl)methyl)-N-phenylpiperazine-1-carboxamide], in that order: > 50 µM, 302 fold and 0.166 µM.
`CC(CO)N1CCN(C(=O)N(Cc2cn3ccc(-c4nnc(C(F)F)o4)cc3n2)c2ccccc2)CC1` (stereo not drawn) [Compound 4035, N-((7-(5-(difluoromethyl)-1,3,4-oxadiazol-2-yl)imidazo[1,2-a]pyridin-2-yl)methyl)-4-(1-hydroxypropan-2-yl)-N-phenylpiperazine-1-carboxamide]: the half-inhibitory concentration (IC50) in experiment [1] was > 50 µM; in experiment [2], 0.298 µM. Besides, the “HDAC6 Selectivity (fold)” value in experiment [2] is 168 fold.
For `O=C(C1CN(C2CCC2)C1)N(Cc1cn2ccc(-c3nnc(C(F)F)o3)cc2n1)c1ccccc1` [Compound 4162, 1-cyclobutyl-N-((7-(5-(difluoromethyl)-1,3,4-oxadiazol-2-yl)imidazo[1,2-a]pyridin-2-yl)methyl)-N-phenylazetidine-3-carboxamide], in that order: > 50 µM, 0.358 µM and 140 fold.
On to `FC(F)c1nnc(-c2ccn3cc(COc4ccccc4)nc3c2)o1` [Compound 3719, 2-(difluoromethyl)-5-(2-(phenoxymethyl)imidazo[1,2-a]pyridin-7-yl)-1,3,4-oxadiazole], for which the results for the IC50 in experiment [1] and in experiment [2] were > 50 µM and 0.211 µM, respectively. Besides, in experiment [2], the “HDAC6 Selectivity (fold)” value is on record as 237 fold.
For `O=C(CO)N1CCN(C(=O)N(Cc2cn3ccc(-c4nnc(C(F)F)o4)cc3n2)c2ccccc2)CC1` [Compound 4042, N-((7-(5-(difluoromethyl)-1,3,4-oxadiazol-2-yl)imidazo[1,2-a]pyridin-2-yl)methyl)-4-(2-hydroxyacetyl)-N-phenylpiperazine-1-carboxamide], in that order: > 50 µM, 0.254 µM and 197 fold.

The term IC50 denotes the midpoint of a concentration-inhibition curve.
